Converted amounts (≈) assume the structure as drawn.
Columns and labels:
[1] = In vitro dissolution of UPA comicronizates (gelatin capsules, paddle device, Eur. Pharmacopoeia §2.9.3); type: physicochemical; details: 30 mg UPA capsule, 900 ml gastric pH buffer, 0.1% SDS, 37°C, 50 rpm, mean of 3
Method: The co-micronization product has improved active ingredient in vitro dissolution properties. In certain embodiments, the co-micronization product according to the invention is characterized in that at least 55% of the active ingredient that it contains is released within 45 minutes when said co-micronization product is subjected to an in vitro dissolution test, preferably according to the European Pharmacopoeia §2.9.3. The in vitro dissolution test can be carried out using any commercially available device. Example 1 hereinafter presents implementing conditions for determining the in vitro dissolution rate of a comicronizate according to the invention. Briefly, an amount of comicronizate representing 30 mg of active ingredient is placed in a gelatin capsule. This capsule is then placed in 900 ml of a medium buffered at gastric pH, comprising 0.1% of SDS, at 37±0.5° C., and subjected to stirring at 50 revolutions per minute (rpm) (speed of rotation of the paddles of the dissolution device). The dissolution of the active ingredient in the medium can be monitored by spectrophotometry, for example at the maximum wavelength of absorbance. For the purposes of the invention, a gastric pH is typically a pH of 1 to 3.
For each comicronizate obtained, gelatin capsules containing an amount of comicronizate corresponding to 30 mg of UPA per capsule were prepared. The studies of the in vitro dissolution of UPA as comicronizate were carried out using these capsules according to the method described in the European Pharmacopoeia in §2.9.3, using a paddle dissolution device.
For each comicronizate, a capsule containing said comicronizate was placed in a bowl of the dissolution device containing 900 ml of a dissolution medium. The dissolution medium is an aqueous solution buffered at gastric pH and comprising 0.1% of SDS. The conditions for carrying out the in vitro dissolutions are the following: • Paddle rotation speed: 50 revolutions per minute (rpm) • Temperature: 37° C.±0.5° C.
The dissolution of the UPA was monitored by spectrophotometry.
By way of control experiment, a gelatin capsule containing 30 mg of ulipristal acetate micronized alone (i.e. UPA micronized in the absence of any co-micronization excipient) was used. For each comicronizate, the dissolution experiment was reproduced 3 times.
These various active ingredient matrices were subjected to an in vitro dissolution test as described above in the “Materials and Methods” section.

[2] = UPA solubility as a function of pH; type: physicochemical
[3] = single dose of 30 mg, within 120 hours following unprotected or poorly protected intercourse; cited from earlier work
[4] = chronic administration, 5 mg or 10 mg per day; cited from earlier work

CC(=O)O[C@]1(C(C)=O)CCC2C3CCC4=CC(=O)CCC4=C3[C@@H](c3ccc(N(C)C)cc3)C[C@@]21C (stereo partly drawn) [UPA, 17α-acetoxy-11β-(4-N,N-dimethylaminophenyl)-19-norpregna-4,9-diene-3,20-dione]
Percentage of UPA released relative to the initial amount of UPA per gel capsule ([1]; time 0 min): 0.00%
Percentage of UPA released relative to the initial amount of UPA per gel capsule ([1]; time 1 min): 0.00%
Percentage of UPA released relative to the initial amount of UPA per gel capsule ([1]; time 5 min): 5.50%
Percentage of UPA released relative to the initial amount of UPA per gel capsule ([1]; time 7.5 min): 15.00%
Percentage of UPA released relative to the initial amount of UPA per gel capsule ([1]; time 10 min): 22.30%
Percentage of UPA released relative to the initial amount of UPA per gel capsule ([1]; time 15 min): 30.00%
Percentage of UPA released relative to the initial amount of UPA per gel capsule ([1]; time 20 min): 34.30%
Percentage of UPA released relative to the initial amount of UPA per gel capsule ([1]; time 30 min, listed as Micronized UPA): 39.50%
Percentage of UPA released relative to the initial amount of UPA per gel capsule ([1]; time 30 min, listed as micronized ulipristal acetate): approximately 39%
Percentage of UPA released relative to the initial amount of UPA per gel capsule ([1]; time 45 min): 47.50%
Percentage of UPA released relative to the initial amount of UPA per gel capsule ([1]; time 60 min): 53.80%
solubility ([2]; pH 1.2, simulated gastric fluid): 22700 µg/mL (≈ 47700 µM)
solubility ([2]; pH 4.5, aqueous buffer): 39 µg/mL (≈ 82 µM)
solubility ([2]; pH 6.8, aqueous buffer): 5 µg/mL (≈ 10.5 µM)
Prevention of unwanted pregnancy [3]: makes it possible to prevent an unwanted pregnancy
Symptoms associated with uterine fibromas [4]: significantly reduce the symptoms associated with uterine fibromas

From patent US20150258118A1, “CO-MICRONISATION PRODUCT COMPRISING A SELECTIVE PROGESTERONE-RECEPTOR MODULATOR” (LABORATOIRE HRA-PHARMA, priority 2012, published 2015)
